Several values for one entry are separate records, joined by “and”; a condition that tells them apart may be missing. Equal entries are not always repeated.
System: RPMI-8226 cells
Assay: Gene expression profiling, NanoString nCounter PanCancer Pathways Panel, ROSALIND analysis
Format: cell-based, human
Settings: RPMI-8226, TCH-165 samples 1-3
Procedure: RPMI-8226 cells were treated with vehicle or TCH-165 (10 μM) for 4 h. Total RNA was obtained using the mirVana miRNA Isolation Kit, with phenol (Thermofisher Scientific; AM1560; Waltham, MA, USA). Total RNA was quantified by Qubit (Thermofisher Scientific; Q32855; Waltham, MA, USA). and gene expression was evaluated against the nCounter® PanCancer Pathways Panel^TM according to the standard NanoString protocol.
Data were analyzed by ROSALIND® [36] with a hyperscale architecture developed by ROSALIND, Inc. (San Diego, CA, USA). Normalization, fold changes and p-values were calculated using criteria provided by NanoString. ROSALIND follows the nCounter® Advanced Analysis protocol of dividing counts within a lane by the geometric mean of the normalizer probes from the same lane. Housekeeping probes to be used for normalization are selected based on the geNorm algorithm, as implemented in the NormqPCR R library. Fold changes and p-values are calculated using the fast method as described in the nCounter Advanced Analysis 2.0 User Manual. The p-value adjustment is performed using the Benjamini–Hochberg method of estimating false discovery rates (FDR). Clustering of genes for the final heatmap of differentially expressed genes was done using the PAM (Partitioning Around Medoids) method using the fpc R library. Hypergeometric distribution was used to analyze the enrichment of pathways, gene ontology, domain structure and other ontologies. The topGO R library was used to determine local similarities and dependencies between GO terms in order to perform Elim pruning correction. Several database sources were referenced for enrichment analysis, including Interpro [40], NCBI [41], MSigDB [42, 43], REACTOME [44], WikiPathways. Enrichment was calculated relative to a set of background genes relevant to the experiment.

CCOC(=O)[C@]1(c2ccccc2)N=C(c2ccc(OC)cc2)N(Cc2ccccc2)[C@@H]1c1ccc(NCc2ccccc2)cc1 [TCH-165]
FGF2 normalized gene expression: 5.208 and 4.324 and 4.613 | FGF3 normalized gene expression: 4.401 and 4.524 and 4.693 | FGF4 normalized gene expression: 5.044 and 4.927 and 4.613 | FGF5 normalized gene expression: 2.723 and 2.569 and 3.0682 | FGF6 normalized gene expression: 3.86 and 3.891 and 3.184 | FGF7 normalized gene expression: 4.86 and 4.996 and 4.653 | FGF8 normalized gene expression: 4.723 and 3.569 and 3.805 | FGF9 normalized gene expression: 7.044 and 7.045 and 7.083 | FGF10 normalized gene expression: 5.308 and 4.614 and 4.975 | FGF11 normalized gene expression: 5.53 and 5.154 and 4.975 | FGF12 normalized gene expression: 3.86 and 4.7789 and 4.769 | FGF13 normalized gene expression: 8.993 and 9.004 and 8.947 | FGF14 normalized gene expression: 4.86 and 4.891 and 4.769 | FGF16 normalized gene expression: 4.793 and 4.996 and 4.731 | FGF17 normalized gene expression: 2.723 and 3.154 and 3.653 | FGF18 normalized gene expression: 4.101 and 2.3768 and 3.39 | FGF19 normalized gene expression: 3.86 and 4.029 and 4.1271 | FGF20 normalized gene expression: 4.571 and 4.817 and 4.876 | FGF21 normalized gene expression: 5.955 and 5.636 and 5.712 | FGF22 normalized gene expression: 5.827 and 5.569 and 5.098 | FGF23 normalized gene expression: 5.208 and 5.124 and 5.341 | FGFR1 normalized gene expression: 4.488 and 4.324 and 4.528 | FGFR2 normalized gene expression: 6.015 and 5.836 and 5.461 | FGFR3 normalized gene expression: 5.488 and 4.614 and 4.9095 | FGFR4 normalized gene expression: 4.401 and 3.891 and 4.1271 | FIGF normalized gene expression: 4.101 and 3.817 and 2.943 | FLNA normalized gene expression: 9.475 and 9.497 and 9.54 | FLNC normalized gene expression: 5.924 and 5.979 and 5.528 | FLT1 normalized gene expression: 3.401 and 4.029 and 3.653 | FLT3 normalized gene expression: 3.401 and 2.739 and 3.0682 | FN1 normalized gene expression: 13.4955 and 13.457 and 13.4134 | FOS normalized gene expression: 7.234 and 7.603 and 7.613 | FOSL1 normalized gene expression: 5.892 and 5.759 and 5.712 | FOXL2 normalized gene expression: 4.924 and 4.569 and 4.528 | FOXO4 normalized gene expression: 6.986 and 7.124 and 6.787 | FST normalized gene expression: 5.308 and 5.093 and 5.184 | FUBP1 normalized gene expression: 10.9203 and 10.8641 and 10.8501 | FUT8 normalized gene expression: 8.45 and 8.328 and 8.338 | FZD2 normalized gene expression: 4.571 and 4.817 and 5.211 | FZD3 normalized gene expression: 7.195 and 7.427 and 7.378 | FZD7 normalized gene expression: 4.986 and 4.7789 and 4.805 | FZD8 normalized gene expression: 4.401 and 3.569 and 4.1271 | FZD9 normalized gene expression: 5.208 and 4.029 and 4.341 | FZD10 normalized gene expression: 4.86 and 3.962 and 4.437 | GADD45A normalized gene expression: 9.132 and 9.301 and 9.248 | GADD45B normalized gene expression: 7.884 and 7.9093 and 7.914 | GADD45G normalized gene expression: 4.101 and 4.569 and 4.693 | GAS1 normalized gene expression: 5.259 and 4.029 and 4.653 | GATA1 normalized gene expression: 5.156 and 4.476 and 4.437 | GATA2 normalized gene expression: 4.924 and 4.476 and 4.0068 | GATA3 normalized gene expression: 2.986 and 4.029 and 4.1271 | GHR normalized gene expression: 4.208 and 4.657 and 4.876 | GLI1 normalized gene expression: 4.793 and 4.996 and 5.1271 | GLI3 normalized gene expression: 7.234 and 6.709 and 6.884 | GNA11 normalized gene expression: 6.86 and 6.739 and 6.602 | GNAQ normalized gene expression: 4.86 and 5.324 and 4.653 | GNAS normalized gene expression: 10.7886 and 10.9336 and 10.8358 | GNG4 normalized gene expression: 4.208 and 4.569 and 4.9095 | GNG7 normalized gene expression: 5.488 and 5.452 and 4.975 | GNGT1 normalized gene expression: 4.86 and 4.699 and 4.341 | GPC4 normalized gene expression: 4.986 and 4.324 and 4.238 | GRB2 normalized gene expression: 11.2288 and 11.2361 and 11.1936 | GRIA3 normalized gene expression: 5.101 and 4.029 and 4.39 | GRIN1 normalized gene expression: 6.182 and 5.836 and 5.975 | GRIN2A normalized gene expression: 5.955 and 5.678 and 5.437 | GRIN2B normalized gene expression: 3.401 and 3.476 and 2.943 | GSK3B normalized gene expression: 8.384 and 8.242 and 8.36 | GTF2H3 normalized gene expression: 9.358 and 9.284 and 9.271 | GZMB normalized gene expression: 4.649 and 4.029 and 4.5707 | H2AFX normalized gene expression: 9.249 and 8.96 and 9.049 | H3F3A normalized gene expression: 13.5139 and 13.5375 and 13.5217 | HDAC1 normalized gene expression: 9.665 and 9.611 and 9.679 | HDAC2 normalized gene expression: 11.0236 and 10.9286 and 10.9442 | HDAC4 normalized gene expression: 6.986 and 6.798 and 6.778 | HDAC5 normalized gene expression: 8.03 and 8.069 and 8.049 | HDAC6 normalized gene expression: 7.658 and 7.699 and 7.643 | HELLS normalized gene expression: 9.578 and 9.451 and 9.503 | HES1 normalized gene expression: 4.924 and 4.855 and 4.613 | HGF normalized gene expression: 8.129 and 8.033 and 8.145 | HHEX normalized gene expression: 5.986 and 6.012 and 5.943 | HIST1H3B normalized gene expression: 15.271 and 14.9487 and 14.86 | HIST1H3G normalized gene expression: 14.1552 and 13.7784 and 13.7341 | HIST1H3H normalized gene expression: 15.3267 and 14.9451 and 14.9056 | HMGA1 normalized gene expression: 10.7304 and 10.6516 and 10.6817 | HMGA2 normalized gene expression: 4.86 and 4.657 and 4.0068 | HNF1A normalized gene expression: 5.53 and 4.962 and 4.769 | HOXA9 normalized gene expression: 5.355 and 5.242 and 5.291 | HOXA10 normalized gene expression: 5.61 and 5.592 and 5.437 | HOXA11 normalized gene expression: 4.986 and 5.093 and 5.414 | HPGD normalized gene expression: 4.208 and 4.3768 and 5.0068

Reference: PMC9138505, “Small Molecule 20S Proteasome Enhancer Regulates MYC Protein Stability and Exhibits Antitumor Activity in Multiple Myeloma” (Biomedicines, 2022)
